# Data taken from US20130059859A1, “PREDICTIVE BIOMARKERS FOR PI3K/AKT KINASE PATHWAY INHIBITOR EFFICACY” (GENENTECH, INC., priority 2010, published 2013).
# How the values were obtained:
# [1] = test system: FOXO3a; assay: FOXO3a immunofluorescence localization (cytoplasm-to-nucleus translocation) assay; type: cell-based
# Protocol: Tissue culture cells are plated in 96 well culture plates in culture medium with 10% (full) serum. 24 hours later, cells are dosed with 1 uM of indicated drug for 6 hours at which point cells are directly fixed in 4% formaldehyde in protein-free phosphate-buffered saline (PBS) for 20 min at 37° C. Plates are washed and then cells permeabilized by a 10 min incubation in ice cold methanol. Plates are washed to remove methanol and incubated with anti-FOXO3a antibody (Cell Signaling Technology, catalog #2497, clone 75D8) in antibody dilution buffer (1% BSA, 0.3% Triton X-100 in PBS) at a 1:20 dilution of primary antibody, along with Hoechst nuclear stain (1:10,000 dilution). Cells are incubated overnight at 4° C. Plates are washed to remove primary antibody and then incubated with secondary antibody, goat anti-rabbit conjugated to Alexa-flour 488 dye (Invitrogen) for 1 hr at ambient temperature in the dark. Plates are washed with PBS, sealed with black plate sealer and analyzed on the Cellomics HCS ArrayScan Imager using the Cytoplasm-to-Nucleus translocation bioapplication (Thermo Scientific).
# [2] = test system: breast cancer cell lines; details: panel of breast cancer cell lines; Hoeflich et al 2009; cited from earlier work
# [3] = test system: PTEN null breast cancer cell lines; assay: Cell line sensitivity to AKT inhibitor (IC50); type: cell-based
# [4] = PI3K/AKT inhibitor resistant cell lines, FIG. 8
# [5] = cell lines sensitive to PI3K/AKT inhibitors, FIG. 7
# [6] = resistant lines with PI3K/AKT activation (MB-468 with PTEN loss), FIG. 8
SMILES,"FOXO3a localization upon treatment [1, 4]","FOXO3a localization upon treatment ([1]; cell lines resistant to GDC-0941, FIG. 10B)","FOXO3a localization upon treatment ([1]; cell lines sensitive to GDC-0941, FIG. 10A)","FOXO3a localization upon treatment [1, 5]","FOXO3a localization upon treatment [1, 6]","FOXO3a localization upon treatment ([1]; breast cancer cell lines, FIGS. 11A-C)",activity at the concentration used [2],"FOXO3a localization post-treatment ([1]; BT474 cells, FIG. 2B)","sensitivity of cell line to AKT inhibitor ([3]; MDA-MB-468, cell line with PTEN loss)","IC50 ([3]; resistant cell lines with PTEN null status, FIG. 5) [µM]"
"CS(=O)(=O)N1CCN(Cc2cc3nc(-c4cccc5[nH]ncc45)nc(N4CCOCC4)c3s2)CC1 [GDC-0941, 2-(1H-Indazol-4-yl)-6-(4-methanesulfonyl-piperazin-1-ylmethyl)-4-morpholin-4-yl-thieno[3,2-d]pyrimidine]",remains nuclear,remains nuclear,relocalizes from cytoplasm to nucleus,translocated from cytoplasm to nucleus,more complete relocalization to nucleus,,,,,
"O=C(NOC[C@H](O)CO)c1ccc(F)c(F)c1Nc1ccc(I)cc1F [PD901, reference compound]",,,,,,unchanged,active,,,
"CC(C)NC[C@@H](C(=O)N1CCN(c2ncnc3c2[C@H](C)C[C@H]3O)CC1)c1ccc(Cl)cc1 [GDC-0068, (S)-2-(4-chlorophenyl)-1-(4-((5R,7R)-7-hydroxy-5-methyl-6,7-dihydro-5H-cyclopenta[d]pyrimidin-4-yl)piperazin-1-yl)-3-(isopropylamino)propan-1-one]",remains nuclear,,,translocated from cytoplasm to nucleus,more complete relocalization to nucleus,,,translocated to the nucleus,resistant,> 20
